From ChEMBL document CHEMBL1201862, “PubChem BioAssay data set” (2004)
The source made the active and inactive calls.

Tests used:
Fatty acid synthase [1] = biological target: T1, Fatty acid synthase (Homo sapiens, UniProt P49327); test: inhibition of human FAS-TE enzyme activity – biochemical, kinetic fluorescence intensity, dose response (AID 624326); type: functional;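 note: rate of fluorescence rise from hydrolysis of a fluorogenic O-methyl fluorescein ester substrate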
[2] = non-specific 3'UTR reporter inhibition in Clone20-Shn3RL – cell-based, Renilla luciferase, cherry-picked, counter-screen for Shn3 inhibitor project, dose response (AID 624133); type: functional
[3] = HepG2 cell cytotoxicity, dose response, cytotoxicity control for non-replicating M. tuberculosis project (AID 489018); type: functional; conditions: Mycobacterium tuberculosis
[4] = Trypanosoma cruzi growth suppression in host cells – NIH3T3 host cells, beta-gal luminescence, confirmation (AID 2044); type: functional, cell-based;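 note: intracellular parasites grown in NIH/3T3 mouse fibroblasts as host cells; luminescent beta-galactosidase reporter signal from transgenic T. cruzi replicating inside host cells; inhibitors lower the luminescence signal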
[5] = biological target: T2, Bifunctional protein GlmU (Mycobacterium tuberculosis, UniProt P9WMN3); test: Inhibitors of Mycobacterial Glucosamine-1-phosphate acetyl transferase (GlmU). Secondary screen.; design: species or system Mycobacterium tuberculosis H37Rv
T2 sequence (P9WMN3 whole entry): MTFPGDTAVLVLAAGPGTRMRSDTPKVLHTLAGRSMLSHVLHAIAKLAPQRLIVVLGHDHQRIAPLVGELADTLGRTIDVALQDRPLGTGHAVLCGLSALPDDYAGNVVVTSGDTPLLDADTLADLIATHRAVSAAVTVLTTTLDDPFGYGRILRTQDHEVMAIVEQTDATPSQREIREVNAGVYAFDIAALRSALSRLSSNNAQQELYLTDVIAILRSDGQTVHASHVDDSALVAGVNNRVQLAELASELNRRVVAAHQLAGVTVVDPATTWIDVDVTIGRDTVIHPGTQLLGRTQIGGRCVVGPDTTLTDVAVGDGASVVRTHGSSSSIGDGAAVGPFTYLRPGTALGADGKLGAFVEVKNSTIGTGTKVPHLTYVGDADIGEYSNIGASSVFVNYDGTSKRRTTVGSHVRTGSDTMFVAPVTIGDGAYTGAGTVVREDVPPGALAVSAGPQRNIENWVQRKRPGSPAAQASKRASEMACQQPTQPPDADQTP

[6] = loss of viability in HepG2 cells – cell-based, CellTiter-Glo, cherry-picked, cytotoxicity control for Shn3 inhibitor project, dose response (AID 624134); type: functional
Beta-galactosidase = Beta-galactosidase (Escherichia coli, UniProt Q8VNN2); type: functional
Sequence of Beta-galactosidase (Q8VNN2 whole entry): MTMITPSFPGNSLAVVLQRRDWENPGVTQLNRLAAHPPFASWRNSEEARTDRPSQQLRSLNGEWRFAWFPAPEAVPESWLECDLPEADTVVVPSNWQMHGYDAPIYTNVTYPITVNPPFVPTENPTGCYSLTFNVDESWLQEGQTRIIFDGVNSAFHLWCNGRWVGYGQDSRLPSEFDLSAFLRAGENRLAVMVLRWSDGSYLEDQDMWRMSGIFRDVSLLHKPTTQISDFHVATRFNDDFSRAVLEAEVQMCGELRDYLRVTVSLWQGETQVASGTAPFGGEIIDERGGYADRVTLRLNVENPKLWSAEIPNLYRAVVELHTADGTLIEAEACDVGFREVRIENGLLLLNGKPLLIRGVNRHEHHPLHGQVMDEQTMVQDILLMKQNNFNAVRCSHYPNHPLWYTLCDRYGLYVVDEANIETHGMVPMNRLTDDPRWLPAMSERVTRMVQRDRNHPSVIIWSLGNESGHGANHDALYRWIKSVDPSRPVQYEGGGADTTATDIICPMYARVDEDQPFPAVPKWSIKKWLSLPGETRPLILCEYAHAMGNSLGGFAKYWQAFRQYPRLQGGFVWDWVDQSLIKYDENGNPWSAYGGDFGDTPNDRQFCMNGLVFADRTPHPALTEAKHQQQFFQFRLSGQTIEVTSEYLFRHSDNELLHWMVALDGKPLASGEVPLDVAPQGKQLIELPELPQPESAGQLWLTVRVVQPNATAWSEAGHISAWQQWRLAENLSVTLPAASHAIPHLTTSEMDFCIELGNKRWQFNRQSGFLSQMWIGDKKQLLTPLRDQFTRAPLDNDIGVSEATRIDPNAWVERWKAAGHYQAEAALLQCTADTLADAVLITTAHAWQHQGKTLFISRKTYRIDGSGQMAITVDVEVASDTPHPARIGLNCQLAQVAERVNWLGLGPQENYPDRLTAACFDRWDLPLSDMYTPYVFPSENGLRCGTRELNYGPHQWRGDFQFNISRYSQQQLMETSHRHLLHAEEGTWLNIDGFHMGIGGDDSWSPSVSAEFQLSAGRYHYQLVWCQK

Beta Lactamase = Beta Lactamase (Pseudomonas aeruginosa, UniProt Q932Y6); test: BLA reporter interference, concentration series – BLA reporter cells, FRET fluorescence, artefact control for TLR9-MyD88 binding inhibitor project, dose response (AID 588341); type: cell-based;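 note: cell based assay in CHO-K1 cells stably expressing beta-lactamase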
Sequence of Beta Lactamase (Q932Y6 whole entry): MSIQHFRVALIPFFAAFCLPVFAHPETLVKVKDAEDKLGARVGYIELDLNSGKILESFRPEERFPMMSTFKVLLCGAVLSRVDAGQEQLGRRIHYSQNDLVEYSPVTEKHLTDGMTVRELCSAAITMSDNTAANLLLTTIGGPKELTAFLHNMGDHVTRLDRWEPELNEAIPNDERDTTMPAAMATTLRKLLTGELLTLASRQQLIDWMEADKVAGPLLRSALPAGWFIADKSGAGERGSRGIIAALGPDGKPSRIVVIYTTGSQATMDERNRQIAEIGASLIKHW

[7] = reduction of Shn3 3'UTR-driven luciferase in osteoblasts – cell-based, Clone20 osteoblasts, firefly luciferase, cherry-picked, dose response (AID 624132); type: functional;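 note: firefly luciferase luminescence from reporter carrying the Shn3 3'UTR in osteoblasts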
[8] = THP-1 cell cytotoxicity, dose response, cytotoxicity control for non-replicating M. tuberculosis project (AID 489025); type: functional
[9] = biological target: T3, Kappa-type opioid receptor (Homo sapiens, UniProt P41145); type: functional
T3 sequence (P41145 whole entry): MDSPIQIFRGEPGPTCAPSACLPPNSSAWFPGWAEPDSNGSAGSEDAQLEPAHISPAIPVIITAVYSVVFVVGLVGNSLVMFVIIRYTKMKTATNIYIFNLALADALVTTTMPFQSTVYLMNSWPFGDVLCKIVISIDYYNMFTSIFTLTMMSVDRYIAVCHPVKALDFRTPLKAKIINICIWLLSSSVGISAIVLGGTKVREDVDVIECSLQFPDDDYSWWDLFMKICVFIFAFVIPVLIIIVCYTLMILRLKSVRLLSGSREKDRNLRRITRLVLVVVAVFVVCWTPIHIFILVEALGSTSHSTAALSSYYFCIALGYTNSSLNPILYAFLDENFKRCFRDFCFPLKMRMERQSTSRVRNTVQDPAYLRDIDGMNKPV

[10] = biological target: T4, Delta-type opioid receptor (Homo sapiens, UniProt P41143); test: HTS Image-Based Screen for Antagonists of the DOR Receptor. [Related pubchem assays (depositor defined):AID1777, AID1785, AID1786, AID2133]; type: functional
T4 sequence (P41143 whole entry, the tested form may be a part): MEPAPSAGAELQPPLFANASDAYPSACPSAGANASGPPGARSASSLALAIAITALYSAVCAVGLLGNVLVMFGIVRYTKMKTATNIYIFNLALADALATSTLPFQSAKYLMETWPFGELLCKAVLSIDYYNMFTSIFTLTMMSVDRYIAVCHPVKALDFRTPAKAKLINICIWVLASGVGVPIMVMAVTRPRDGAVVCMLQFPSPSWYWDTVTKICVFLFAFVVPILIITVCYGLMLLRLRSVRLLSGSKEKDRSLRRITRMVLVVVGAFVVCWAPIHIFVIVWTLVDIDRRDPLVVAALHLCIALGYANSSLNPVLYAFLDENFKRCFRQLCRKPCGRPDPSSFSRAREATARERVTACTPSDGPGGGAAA

CHO = CHO cell viability loss, potency – luminescence, cytotoxicity control for TLR9-MyD88 binding inhibitor project, dose response (AID 588339); type: functional, cell-based, hamster; conditions: Cricetulus griseus;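 note: CHO cells stably coexpressing TLR9 and MyD88 fusions from primary screen; compound exposure lasted 48 hours before viability readout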
[11] = biological target: T4, Delta-type opioid receptor; test: HTS Image-Based Screen for Agonists of the DOR Receptor. [Related pubchem assays (depositor defined):AID1777, AID1786, AID2133]; type: functional
[12] = biological target: T5, Microphthalmia-associated transcription factor (Homo sapiens, UniProt O75030); test: reducers of TRPM1 reporter luminescence, concentration series – cell-based, SK-MEL-5, cherry-picked, set 3, MITF inhibitor project, dose response (AID 493073); type: functional;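 note: SK-MEL-5 melanoma cells with luciferase driven by the MITF target TRPM1 promoter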
T5 sequence (O75030 whole entry): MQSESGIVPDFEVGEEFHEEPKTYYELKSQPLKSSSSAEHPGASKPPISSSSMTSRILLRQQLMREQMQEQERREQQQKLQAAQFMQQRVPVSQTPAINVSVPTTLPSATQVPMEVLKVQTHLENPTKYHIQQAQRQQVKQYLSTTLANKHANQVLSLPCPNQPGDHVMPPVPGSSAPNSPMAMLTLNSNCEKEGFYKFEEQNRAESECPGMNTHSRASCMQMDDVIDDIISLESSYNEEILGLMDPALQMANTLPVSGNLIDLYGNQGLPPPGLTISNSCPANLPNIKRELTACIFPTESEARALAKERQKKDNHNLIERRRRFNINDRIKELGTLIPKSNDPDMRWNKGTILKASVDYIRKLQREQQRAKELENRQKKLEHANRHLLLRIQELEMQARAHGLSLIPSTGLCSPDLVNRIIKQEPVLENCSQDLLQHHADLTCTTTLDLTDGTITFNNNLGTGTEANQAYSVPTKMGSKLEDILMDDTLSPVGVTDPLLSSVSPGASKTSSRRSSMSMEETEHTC

[13] = Vero E6 cell cytotoxicity, dose response, cytotoxicity control for non-replicating M. tuberculosis project, secondary assay (AID 492998); type: functional, VeroE6; conditions: Vero C1008
cells = type: functional
[14] = NIH3T3 cell viability loss – ATP luminescence, mouse fibroblasts, counter-screen, dose response (AID 2010); type: functional, cell-based;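 note: cells exposed to compound for about 90 hours before reading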
Fatty acid synthase [15] = biological target: T1, Fatty acid synthase; test: inhibition of human FAS-TE enzyme activity – biochemical, endpoint fluorescence intensity, uHTS hits, dose response (AID 624327); type: functional;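 note: fluorescence from hydrolysis of an O-methyl fluorescein acyl ester substrate by the enzyme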
[16] = biological target: T3, Kappa-type opioid receptor; type: functional; remark: listed apart in the source
Mu-type opioid receptor = Mu-type opioid receptor (Homo sapiens, UniProt P35372); test: HTS Image-Based Screen for Agonists of the MOR Receptor. [Related pubchem assays (depositor defined):AID1777, AID1785, AID1786, AID2133]; type: functional;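 note: imaging of beta-arrestin GFP recruitment into spots after receptor activation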
Sequence of Mu-type opioid receptor (P35372 whole entry): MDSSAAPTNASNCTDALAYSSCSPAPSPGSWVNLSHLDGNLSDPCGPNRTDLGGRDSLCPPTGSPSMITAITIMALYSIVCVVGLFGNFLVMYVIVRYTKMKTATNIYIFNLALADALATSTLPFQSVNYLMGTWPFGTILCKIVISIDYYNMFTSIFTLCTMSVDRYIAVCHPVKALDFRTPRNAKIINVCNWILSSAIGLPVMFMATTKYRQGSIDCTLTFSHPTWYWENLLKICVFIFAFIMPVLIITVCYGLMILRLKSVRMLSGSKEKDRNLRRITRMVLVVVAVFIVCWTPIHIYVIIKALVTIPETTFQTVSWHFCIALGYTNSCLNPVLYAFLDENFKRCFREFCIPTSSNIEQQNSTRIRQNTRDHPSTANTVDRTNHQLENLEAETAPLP

[17] = viability of HCT116 lacking mutant beta-catenin – cell-based, human colon tumor, dose response (AID 1045); type: functional;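 note: HCT116 colon tumor cells with beta catenin knocked out; cells exposed to compound for 60 hours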
[18] = viability of PTEN-deleted HCT116 cells – cell-based, HCT116 PTEN knockout, dose response (AID 1047); type: functional;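 note: HCT116 colon tumor cells with PTEN knocked out; cells exposed to compound for 60 hours before readout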
Caspase-3 = biological target: T6, Caspase-3 (Homo sapiens, UniProt P42574); test: SAR Analysis of small molecule inhibitors of Sentrin-specific proteases (SENPs) using a Caspase-3 Selectivity assay. [Related pubchem assays (depositor defined):AID2540, AID2599, AID434973, AID489001]; type: functional
T6 sequence (P42574 whole entry): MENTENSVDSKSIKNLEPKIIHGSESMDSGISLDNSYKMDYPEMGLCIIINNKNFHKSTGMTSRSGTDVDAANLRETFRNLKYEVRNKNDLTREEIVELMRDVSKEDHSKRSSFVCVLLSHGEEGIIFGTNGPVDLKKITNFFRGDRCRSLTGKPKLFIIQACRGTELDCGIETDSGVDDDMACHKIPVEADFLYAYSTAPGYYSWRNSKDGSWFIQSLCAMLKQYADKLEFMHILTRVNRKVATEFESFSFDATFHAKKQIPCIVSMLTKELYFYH

[19] = biological target: T7, Sentrin-specific protease 7 (Homo sapiens, UniProt Q9BQF6); test: inhibition of human SENP7 cleavage activity – biochemical, luminescence, SAR follow-up (AID 504497); type: functional
T7 sequence (Q9BQF6 whole entry): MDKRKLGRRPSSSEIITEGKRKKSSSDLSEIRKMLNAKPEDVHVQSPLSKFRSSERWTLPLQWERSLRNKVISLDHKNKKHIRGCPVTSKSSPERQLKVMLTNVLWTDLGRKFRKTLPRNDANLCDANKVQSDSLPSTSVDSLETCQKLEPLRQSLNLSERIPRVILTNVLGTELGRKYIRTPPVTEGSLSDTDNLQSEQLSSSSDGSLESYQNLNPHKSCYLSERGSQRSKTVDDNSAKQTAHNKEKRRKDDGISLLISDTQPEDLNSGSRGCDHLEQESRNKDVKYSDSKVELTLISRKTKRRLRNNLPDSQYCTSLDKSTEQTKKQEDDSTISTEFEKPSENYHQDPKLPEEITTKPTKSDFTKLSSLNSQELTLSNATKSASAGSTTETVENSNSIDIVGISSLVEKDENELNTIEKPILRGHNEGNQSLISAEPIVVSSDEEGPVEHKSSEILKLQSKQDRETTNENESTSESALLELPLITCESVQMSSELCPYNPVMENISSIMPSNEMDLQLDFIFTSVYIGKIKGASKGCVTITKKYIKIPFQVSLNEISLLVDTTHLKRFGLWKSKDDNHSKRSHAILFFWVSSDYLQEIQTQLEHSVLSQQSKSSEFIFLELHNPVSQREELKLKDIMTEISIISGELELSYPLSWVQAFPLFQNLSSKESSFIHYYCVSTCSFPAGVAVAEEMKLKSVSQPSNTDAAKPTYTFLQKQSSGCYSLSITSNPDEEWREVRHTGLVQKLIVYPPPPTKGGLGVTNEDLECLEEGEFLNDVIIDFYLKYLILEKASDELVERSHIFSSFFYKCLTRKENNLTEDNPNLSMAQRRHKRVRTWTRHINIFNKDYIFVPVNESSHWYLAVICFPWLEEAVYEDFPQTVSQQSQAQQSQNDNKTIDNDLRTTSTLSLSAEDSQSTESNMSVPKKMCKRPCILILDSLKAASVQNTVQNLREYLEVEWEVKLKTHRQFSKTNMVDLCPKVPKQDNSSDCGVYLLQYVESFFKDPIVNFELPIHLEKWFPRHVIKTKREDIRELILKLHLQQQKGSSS

[20] = biological target: T8, Sentrin-specific protease 8 (Homo sapiens, UniProt Q96LD8); test: inhibition of human SENP8 cleavage activity – biochemical, luminescence, SAR follow-up (AID 504501); type: functional
T8 sequence (Q96LD8 whole entry): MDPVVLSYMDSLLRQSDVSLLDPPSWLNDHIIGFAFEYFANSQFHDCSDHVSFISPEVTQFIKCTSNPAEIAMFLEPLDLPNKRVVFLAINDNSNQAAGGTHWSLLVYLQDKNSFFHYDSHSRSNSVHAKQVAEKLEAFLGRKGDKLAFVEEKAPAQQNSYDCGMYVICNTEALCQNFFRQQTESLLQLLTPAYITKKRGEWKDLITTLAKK

[21] = biological target: T9, Sentrin-specific protease 6 (Homo sapiens, UniProt Q9GZR1); test: SAR Analysis of small molecule inhibitors of Sentrin-specific protease 6 (SENP6) using a Luminescent assay. [Related pubchem assays (depositor defined):AID2582, AID2599]; type: functional
T9 sequence (Q9GZR1 whole entry): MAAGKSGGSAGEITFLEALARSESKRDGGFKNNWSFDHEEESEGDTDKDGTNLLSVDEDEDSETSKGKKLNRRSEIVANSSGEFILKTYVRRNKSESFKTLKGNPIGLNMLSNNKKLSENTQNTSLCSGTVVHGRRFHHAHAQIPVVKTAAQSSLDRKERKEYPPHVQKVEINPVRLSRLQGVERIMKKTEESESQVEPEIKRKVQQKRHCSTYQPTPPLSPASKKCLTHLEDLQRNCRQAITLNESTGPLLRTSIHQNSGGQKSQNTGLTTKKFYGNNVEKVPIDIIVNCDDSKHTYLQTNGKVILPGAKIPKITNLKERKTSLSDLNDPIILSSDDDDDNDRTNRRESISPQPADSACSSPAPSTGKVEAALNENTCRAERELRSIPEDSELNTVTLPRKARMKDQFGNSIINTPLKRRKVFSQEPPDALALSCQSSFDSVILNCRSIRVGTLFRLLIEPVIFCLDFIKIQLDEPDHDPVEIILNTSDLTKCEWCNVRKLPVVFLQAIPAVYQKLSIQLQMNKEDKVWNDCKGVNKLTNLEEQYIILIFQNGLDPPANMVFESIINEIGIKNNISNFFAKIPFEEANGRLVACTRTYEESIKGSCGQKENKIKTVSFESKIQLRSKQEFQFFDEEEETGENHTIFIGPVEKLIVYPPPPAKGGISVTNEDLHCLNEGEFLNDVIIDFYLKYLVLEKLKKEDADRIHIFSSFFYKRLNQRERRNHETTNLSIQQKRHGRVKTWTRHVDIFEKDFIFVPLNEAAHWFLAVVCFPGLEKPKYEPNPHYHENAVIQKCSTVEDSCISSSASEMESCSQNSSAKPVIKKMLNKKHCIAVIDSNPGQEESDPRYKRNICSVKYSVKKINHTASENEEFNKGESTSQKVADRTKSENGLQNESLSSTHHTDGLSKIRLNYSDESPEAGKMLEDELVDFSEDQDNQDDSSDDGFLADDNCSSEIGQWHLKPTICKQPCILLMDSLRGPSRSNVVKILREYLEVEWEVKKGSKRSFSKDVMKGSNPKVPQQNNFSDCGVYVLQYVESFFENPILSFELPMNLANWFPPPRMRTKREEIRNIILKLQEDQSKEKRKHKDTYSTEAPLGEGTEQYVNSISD

T1 sequence (P49327 whole entry): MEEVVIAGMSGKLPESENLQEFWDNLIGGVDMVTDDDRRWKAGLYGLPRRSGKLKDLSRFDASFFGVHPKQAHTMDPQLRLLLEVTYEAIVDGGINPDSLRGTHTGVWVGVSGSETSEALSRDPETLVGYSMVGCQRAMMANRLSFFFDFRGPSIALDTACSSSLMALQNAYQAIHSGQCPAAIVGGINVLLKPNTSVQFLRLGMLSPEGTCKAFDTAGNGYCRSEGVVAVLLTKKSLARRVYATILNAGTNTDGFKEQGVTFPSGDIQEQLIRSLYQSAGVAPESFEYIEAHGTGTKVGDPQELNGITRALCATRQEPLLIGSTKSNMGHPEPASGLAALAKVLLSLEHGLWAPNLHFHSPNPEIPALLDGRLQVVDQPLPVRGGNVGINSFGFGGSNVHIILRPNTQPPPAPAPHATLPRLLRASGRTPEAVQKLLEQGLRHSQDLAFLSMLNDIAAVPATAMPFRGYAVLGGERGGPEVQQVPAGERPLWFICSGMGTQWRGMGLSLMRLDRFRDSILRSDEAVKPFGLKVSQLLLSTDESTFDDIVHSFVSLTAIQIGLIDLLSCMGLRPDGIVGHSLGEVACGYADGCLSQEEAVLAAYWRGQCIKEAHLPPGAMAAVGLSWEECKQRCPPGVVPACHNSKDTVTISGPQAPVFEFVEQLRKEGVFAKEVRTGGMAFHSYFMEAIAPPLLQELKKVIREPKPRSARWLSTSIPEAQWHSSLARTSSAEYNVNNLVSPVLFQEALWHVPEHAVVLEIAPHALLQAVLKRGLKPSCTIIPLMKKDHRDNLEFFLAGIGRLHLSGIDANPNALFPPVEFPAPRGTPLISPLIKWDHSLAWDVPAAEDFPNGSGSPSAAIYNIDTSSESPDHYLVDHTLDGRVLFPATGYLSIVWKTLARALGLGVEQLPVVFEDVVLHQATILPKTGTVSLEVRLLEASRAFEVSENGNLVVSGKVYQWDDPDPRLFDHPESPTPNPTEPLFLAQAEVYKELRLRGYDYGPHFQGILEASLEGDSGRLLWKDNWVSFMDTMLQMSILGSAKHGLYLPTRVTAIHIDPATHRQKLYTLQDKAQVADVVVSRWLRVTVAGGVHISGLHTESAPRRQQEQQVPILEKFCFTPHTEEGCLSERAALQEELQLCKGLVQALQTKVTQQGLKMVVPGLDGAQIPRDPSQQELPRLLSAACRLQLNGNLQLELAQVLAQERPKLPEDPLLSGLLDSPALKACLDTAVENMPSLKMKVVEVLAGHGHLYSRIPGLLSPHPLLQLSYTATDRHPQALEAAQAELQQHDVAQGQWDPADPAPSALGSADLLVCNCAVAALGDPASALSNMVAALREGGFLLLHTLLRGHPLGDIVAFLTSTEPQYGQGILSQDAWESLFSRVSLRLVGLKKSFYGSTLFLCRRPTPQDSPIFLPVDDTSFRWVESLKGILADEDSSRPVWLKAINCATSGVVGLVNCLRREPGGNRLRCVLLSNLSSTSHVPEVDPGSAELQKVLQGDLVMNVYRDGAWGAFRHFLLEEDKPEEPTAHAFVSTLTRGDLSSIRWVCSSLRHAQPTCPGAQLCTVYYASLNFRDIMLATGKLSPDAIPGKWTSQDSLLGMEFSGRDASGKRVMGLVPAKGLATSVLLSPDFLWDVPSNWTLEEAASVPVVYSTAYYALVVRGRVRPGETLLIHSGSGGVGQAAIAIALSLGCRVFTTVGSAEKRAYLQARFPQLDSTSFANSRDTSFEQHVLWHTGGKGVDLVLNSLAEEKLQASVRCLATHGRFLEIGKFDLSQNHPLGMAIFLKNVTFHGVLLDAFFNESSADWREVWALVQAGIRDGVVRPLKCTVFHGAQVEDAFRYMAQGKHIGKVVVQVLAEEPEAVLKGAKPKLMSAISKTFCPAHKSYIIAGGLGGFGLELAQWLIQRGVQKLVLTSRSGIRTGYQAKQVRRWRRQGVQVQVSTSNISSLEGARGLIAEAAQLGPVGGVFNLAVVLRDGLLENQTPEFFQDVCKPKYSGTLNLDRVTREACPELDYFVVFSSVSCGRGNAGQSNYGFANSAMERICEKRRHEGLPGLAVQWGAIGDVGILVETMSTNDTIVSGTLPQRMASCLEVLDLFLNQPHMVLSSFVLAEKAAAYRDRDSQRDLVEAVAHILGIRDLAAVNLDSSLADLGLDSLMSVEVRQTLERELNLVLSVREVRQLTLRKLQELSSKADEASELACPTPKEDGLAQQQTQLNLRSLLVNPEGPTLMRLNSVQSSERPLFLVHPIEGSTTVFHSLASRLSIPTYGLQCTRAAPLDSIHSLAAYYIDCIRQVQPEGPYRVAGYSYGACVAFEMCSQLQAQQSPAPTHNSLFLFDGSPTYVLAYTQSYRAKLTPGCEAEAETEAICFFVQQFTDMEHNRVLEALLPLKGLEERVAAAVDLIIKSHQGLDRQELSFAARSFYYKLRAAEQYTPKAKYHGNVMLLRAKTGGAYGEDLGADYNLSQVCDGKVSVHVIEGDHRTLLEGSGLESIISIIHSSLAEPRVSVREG

CC(=O)OCCNc1cc(Sc2nc3ccccc3[nH]2)c2nonc2c1[N+](=O)[O-]
17.1 µM: IC50 [16]
inactive: EC50 (Beta-galactosidase) > 31.5 µM | IC50 (Beta Lactamase) 10 µM | IC50 [10] > 32 µM | EC50 [11] > 32 µM | EC50 (Mu-type opioid receptor) > 32 µM
active: IC50 (Fatty acid synthase [1]) 2.59 µM | AC50 [2] 6.26 µM | CC50 [3] 12.4 µM | EC50 [4] 2.47 µM | IC50 [5] 116 µM | AC50 [6] 17.5 µM | AC50 [7] 1.86 µM | CC50 [8] 19.9 µM | IC50 [9] 5.01 µM | IC50 (CHO) 3.06 µM | AC50 [12] 11.5 µM | CC50 [13] 13.5 µM | IC50 (cells) 5.83 µM | EC50 [14] 3.66 µM | IC50 (Fatty acid synthase [15]) 1.75 µM | EC50 [17] 4.64 µM | EC50 [18] 4.91 µM

C(=N\Nc1cc(N2CCCC2)nc(N2CCCC2)n1)/c1ccccc1
inactive: IC50 (Caspase-3) > 99 µM | IC50 [20] > 99 µM
active: IC50 [19] 89.9 µM | IC50 [21] 15.1 µM
